Experimental data taken from patent US11793741B2, “Topical composition” (Conopco, Inc., priority 2017, dated 2023).

System: psoriasin
Assay: Generation of psoriasin (AMP marker) by human keratinocytes, ELISA of cell culture supernatant
Format: cell-based
Conditions: NHEK cells, 72 hours; for Fold change in psoriasin levels over control: control (Example A) = 1
Method: The experiment was done with the above-mentioned cells with passage between 3 and 4. The cells were seeded (35,000 cells/well) in 24 well plate with keratinocyte growth media (KGM) obtained from Invitrogen®. The plate was then incubated at 37±2° C. in a CO2 incubator for 48 hours. Step 2: After 48 hours of incubation, cell differentiation was induced by replacing media with fresh KGM supplemented with 2 mM calcium chloride solution. This was then followed by incubation at 37±2° C. in a CO2 incubator for 48 hours. Step 3: After that, the cells were treated with niacinamide and the compound of formula I, i.e. N-cyclopropyl nicotinamide, in varying concentration as outlined in table 1 below with keratinocyte growth media supplemented with 2 mM calcium chloride solution. Step 4: After the above treatment, cells were again incubated at 37±2° C. in a CO2 incubator for 72 hours. Step 5: After 72 hours of incubation, cell culture supernatant from each well was collected in a sterile tube. The samples were then stored at −80° C. until used for testing psoriasin secretion by standard ELISA technique using psoriasin ELISA kit obtained from Circulx® (No: CY-8073). In the current experiment, psoriasin was used as a marker for AMP. Step 6: The ELISA method was performed by using 100 μL of cell culture supernatant from each sample. The data is expressed in terms of fold change over control (no treatment: Example A). The fold change in psoriasin levels in case of control (example A) is taken to be equal to 1 fold. Any fold change in psoriasin obtained due to treatments outlined in all the other examples was over and above the 1 fold change obtained from the control.

SMILES	Fold change in psoriasin levels over control (100 μg/mL active) [fold]	Fold change in psoriasin levels over control (250 μg/mL active) [fold]	Fold change in psoriasin levels over control (500 μg/mL active) [fold]	Fold change in psoriasin over and above 1 fold of the control (100 μg/mL active) [fold]
O=C(NC1CC1)c1cccnc1 [Example 1, N-cyclopropyl nicotinamide]	1.61	1.88	2.16	–
NC(=O)c1cccnc1 [Example B, Niacinamide]	1.26	1.50	1.44	0.26
